Columns and labels:
human ALK2 R206H = target: T1, human ALK2 R206H (Homo sapiens, UniProt Q04771, R206H); assay: Cell-based ALK2-R206H cell activity assay (Smad1-Ser463/Ser465 phosphorylation by AlphaLISA in HEK293-ALK2-R206H cells); conditions: read-out: Cell Line (Cell Assay IC50)
T1 construct: expressed in transfected cells; host or cells: HEK293 (ATCC CRL1573), lentivirus transduction, blasticidin selection
T1 sequence (Q04771 21-509 R206H): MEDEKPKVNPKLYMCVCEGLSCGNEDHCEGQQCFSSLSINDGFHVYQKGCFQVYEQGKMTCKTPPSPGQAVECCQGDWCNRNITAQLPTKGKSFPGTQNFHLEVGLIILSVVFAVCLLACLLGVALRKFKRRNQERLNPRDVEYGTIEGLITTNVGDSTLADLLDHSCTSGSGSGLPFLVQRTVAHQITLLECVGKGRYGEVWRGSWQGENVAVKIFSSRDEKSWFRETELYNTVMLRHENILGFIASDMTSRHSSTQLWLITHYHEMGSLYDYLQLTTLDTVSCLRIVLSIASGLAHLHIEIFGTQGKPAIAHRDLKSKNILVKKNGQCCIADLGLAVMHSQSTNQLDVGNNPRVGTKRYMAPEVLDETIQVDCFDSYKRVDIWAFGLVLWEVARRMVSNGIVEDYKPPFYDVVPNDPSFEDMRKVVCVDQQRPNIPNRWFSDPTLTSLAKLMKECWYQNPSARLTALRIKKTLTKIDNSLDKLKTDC
How it was run: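 Stable HEK293 cells expressing C-terminally FLAG-tagged human ALK2 R206H (lentiviral, blasticidin-selected) were treated with compounds in 10-point, 3-fold dilutions from 10 μM or 1 μM top, in duplicate. Smad1 Ser463/Ser465 phosphorylation was read by AlphaLISA.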

[1] = target: T2, ALK2 R206H (GST-tagged mutant ALK2) (Homo sapiens, UniProt Q04771, R206H); assay: ALK binding assay (LANTHASCREEN TR-FRET competitive binding, displacement of Kinase Tracer 178); conditions: ALK2 R206H, LANTHASCREEN TR-FRET competitive binding; read-out: Binding Assay (IC50)
T2 construct: purchased Carna Bioscience or ThermoFisher 09-148 or PV6232
T2 sequence (Q04771 21-509 R206H): T1 sequence (Q04771 21-509 R206H)

Compound | IC50 (human ALK2 R206H) [nM] | IC50 [1] [nM]
CCN1CCN(c2ccc(-c3cc4c(N5CCN(C(=O)N6CCCC6)CC5)ccnn4c3)cc2)CC1 [Compound 327] | 100 to 500 | 10 to 50
CCNC(=O)N1CCN(c2ccnn3cc(-c4ccc(N5CC6(C5)CN(C(C)C)C6)cc4)cc23)CC1 [Compound 328] | 100 to 500 | < 10
CCN1CC2CN(c3ccnn4cc(-c5ccc(N6CCN(C(C)C)CC6)cc5)cc34)CCN2C1=O (centres unmarked) [Compound 329] | 100 to 500 | < 10
CCN1C[C@@H]2CN(c3ccnn4cc(-c5ccc(N6CCN(C(C)C)CC6)cc5)cc34)CCN2C1=O [Compound 330] | 100 to 500 | < 10
CCN1CC2(C1)CN(c1ccc(-c3cc4c(N5CCN(C(=O)[C@@H]6C[C@H]6F)CC5)ccnn4c3)cc1)C2 [Compound 332] | < 100 | < 10
CCN1CC2(C1)CN(c1ccc(-c3cc4c(N5CCN(C(=O)[C@H]6C[C@H]6F)CC5)ccnn4c3)cc1)C2 [Compound 333] | < 100 | < 10
COCCN1CCN(c2ccc(-c3cc4c(N5CCN(C(=O)C6CC6)CC5)ccnn4c3)cc2)CC1 [Compound 334] | 100 to 500 | 10 to 50
CCN1CCN(c2ccc(-c3cc4c(N5CCN(C(=O)[C@H]6C[C@@H](O)C6)CC5)ccnn4c3)cc2)CC1 [Compound 335] | > 500 | > 50
CCN1CCN(c2ccc(-c3cc4c(N5CCN(C(=O)[C@H]6C[C@H](O)C6)CC5)ccnn4c3)cc2)CC1 [Compound 336] | < 100 | < 10
CCN1CCC(c2ccc(-c3cc4c(N5CCN(C(=O)N6CC(O)C6)CC5)ccnn4c3)cc2)CC1 [Compound 337] | < 100 | < 10
CCOC(=O)N1CCN(c2ccnn3cc(-c4ccc(N5CC6(C5)CN(C(C)C)C6)cc4)cc23)CC1 [Compound 338] | 100 to 500 | < 10
CCNC(=O)N1CCN(c2ccnn3cc(-c4ccc(C5CCN(C(C)C)CC5)cc4)cc23)C[C@H]1C [Compound 339] | < 100 | < 10
CC(C)NC(=O)N1CCN(c2ccnn3cc(-c4ccc(C5CCN(C(C)C)CC5)cc4)cc23)CC1 [Compound 340] | < 100 | < 10
CCCNC(=O)N1CCN(c2ccnn3cc(-c4ccc(C5CCN(C(C)C)CC5)cc4)cc23)CC1 [Compound 341] | < 100 | < 10
O=C([C@H]1CC[C@H](O)CC1)N1CCN(c2ccnn3cc(-c4ccc(C5CNCCO5)cc4)cc23)CC1 (some centres unmarked) [Compound 343] | 100 to 500 | < 10
CCN1CCN(c2ccc(-c3cc4c(N5CCN(C(=O)N6CC(O)C6)CC5)ccnn4c3)cc2)CC1 [Compound 344] | 100 to 500 | 10 to 50
CC(C)N1CCC(c2ccc(-c3cc4c(N5CCN(C(=O)C6CC6)CC5)ccnn4c3)cc2F)CC1 [Compound 345] | < 100 | < 10

Compound | IC50 (human ALK2 R206H) [nM] | IC50 [1] [nM]
CC(C)NC(=O)N1CCN(c2ccnn3cc(-c4ccc(N5CCN(C(C)C)CC5)cc4)cc23)CC1 [Compound 348] | < 100 | < 10
CC(C)N1CCN(c2ccc(-c3cc4c(N5CCN(C(=O)[C@@H]6C[C@H]6F)CC5)ccnn4c3)cc2)CC1 [Compound 349] | < 100 | < 10
CC(C)N1CCN(c2ccc(-c3cc4c(N5CCN(C(=O)[C@H]6C[C@H]6F)CC5)ccnn4c3)cc2)CC1 [Compound 350] | < 100 | < 10
CCNC(=O)N1CCN(c2ccnn3cc(-c4ccc(C5(O)CCCN(C(C)C)C5)cc4)cc23)CC1 (centres unmarked) [Compound 351] | < 100 | < 10
CCNC(=O)N1CCN(c2ccnn3cc(-c4ccc(C5(O)CCN(C(C)C)CC5)cc4)cc23)CC1 [Compound 352] | 100 to 500 | < 10
CC(C)N1CCC(c2ccc(-c3cc4c(N5CCN(C(=O)NCCO)CC5)ccnn4c3)cc2)CC1 [Compound 353] | 100 to 500 | < 10
CCNC(=O)N1CCN(c2ccnn3cc(-c4ccc(C5CCN(C(C)C)CC5)c(F)c4)cc23)CC1 [Compound 354] | < 100 | < 10
CCN1CCC(c2ccc(-c3cc4c(N5CCN(C(=O)C6CC6)CC5)ccnn4c3)cc2)C(F)(F)C1 (centres unmarked) [Compound 355] | > 500 | 10 to 50
CCOC(=O)N1CCN(c2ccnn3cc(-c4ccc(C5CCN(C(C)C)CC5)c(F)c4)cc23)CC1 [Compound 357] | < 100 | < 10
O=C(C1CC1)N1CCN(c2ccnn3cc(-c4ccc(N5CCN(CC(F)F)CC5)cc4)cc23)CC1 [Compound 359] | > 500 | < 10
CCN1CCN(c2c(F)cc(-c3cc4c(N5CCN(C(=O)C6CC6)CC5)ccnn4c3)cc2F)CC1 [Compound 360] | 100 to 500 | < 10
CCN1CCN(c2ccc(-c3cc4c(N5CCN(C(=O)C6CC6(F)F)CC5)ccnn4c3)cc2)CC1 (centres unmarked) [Compound 361] | 100 to 500 | < 10
O=C(C1CC1)N1CCN(c2ccnn3cc(-c4ccc(N5CCNCC5)cc4OC(F)F)cc23)CC1 [Compound 363] | 100 to 500 | < 10
CC(C)N1CC[C@@H](c2ccc(-c3cc4c(N5CCN(C(=O)[C@H]6C[C@H](C#N)C6)CC5)ccnn4c3)cc2)C1 [Compound 364] | < 100 | < 10
CC(C)N1CCC(c2ccc(-c3cc4c(N5CCN(C(=O)[C@H]6C[C@@H]6C#N)CC5)ccnn4c3)cc2)CC1 [Compound 365] | < 100 | < 10
CC(C)N1CC[C@H](c2ccc(-c3cc4c(N5CCN(C(=O)[C@H]6C[C@H](C#N)C6)CC5)ccnn4c3)cc2)C1 [Compound 366] | < 100 | < 10
CCN1CCN(c2ccc(-c3cc4c(N5CCN(C(=O)C6CC(C#N)C6)CC5)ccnn4c3)cc2)CC1 (centres unmarked) [Compound 367] | < 100 | < 10

Next, values leading:

IC50 (human ALK2 R206H) [nM] | IC50 [1] [nM] | Compound
< 100 | < 10 | CC(C)N1CC[C@H](c2ccc(-c3cc4c(N5CCN(C(=O)N6CC(C#N)C6)CC5)ccnn4c3)cc2)C1 [Compound 368]
< 100 | < 10 | CC(C)N1CC[C@@H](c2ccc(-c3cc4c(N5CCN(C(=O)N6CC(C#N)C6)CC5)ccnn4c3)cc2)C1 [Compound 369]
< 100 | < 10 | CCN1CCC(c2ccc(-c3cc4c(N5CCN(C(=O)N6CC(C#N)C6)CC5)ccnn4c3)cc2)CC1 [Compound 370]
< 100 | < 10 | N#C[C@H]1CC[C@H](C(=O)N2CCN(c3ccnn4cc(-c5ccc(N6CCNCC6)cc5)cc34)CC2)CC1 [Compound 371]
> 500 | 10 to 50 | O=C(C1CC1)N1CCN(c2ccnn3cc(-c4ccc(N5CCNC(C(F)(F)F)C5)cc4)cc23)CC1 (centres unmarked) [Compound 373]
< 100 | < 10 | N#C[C@H]1CC[C@H](C(=O)N2CCN(c3ccnn4cc(-c5ccc(C6CNCCO6)cc5)cc34)CC2)CC1 (some centres unmarked) [Compound 375]
< 100 | < 10 | CCN1CCN(c2ccc(-c3cc4c(N5CCN(C(=O)N6CC(C#N)C6)CC5)ccnn4c3)cc2)CC1 [Compound 376]
100 to 500 | < 10 | CC(C)N1CCC(c2ccc(-c3cc4c(N5CCN(C(=O)NCCC#N)CC5)ccnn4c3)cc2)CC1 [Compound 377]
100 to 500 | < 10 | CCN1CCC(c2ccc(-c3cc4c(N5CCN(C(=O)N6CCCCC6)CC5)ccnn4c3)cc2)CC1 [Compound 379]
< 100 | < 10 | CC(C)N1CCC(c2ccc(-c3cc4c(N5CCN(C(=O)NC6CCC6)CC5)ccnn4c3)cc2)CC1 [Compound 380]
< 100 | < 10 | CC(C)N1CCCC(c2ccc(-c3cc4c(N5CCN(C(=O)[C@H]6C[C@H](O)C6)CC5)ccnn4c3)cc2)C1 (some centres unmarked) [Compound 381]
< 100 | < 10 | CCN1CCC(c2ccc(-c3cc4c(N5CCN(C(=O)[C@H]6C[C@H](O)C6)[C@H](C)C5)ccnn4c3)cc2)CC1 [Compound 382]
< 100 | < 10 | CCN1CCC(c2ccc(-c3cc4c(N5CCN(C(=O)C6CC(C)(O)C6)CC5)ccnn4c3)cc2)CC1 (centres unmarked) [Compound 383]
< 100 | < 10 | CCN1CCC(c2ccc(-c3cc4c(N5CCN(C(=O)[C@H]6C[C@](C)(O)C6)CC5)ccnn4c3)cc2)CC1 [Compound 384]
< 100 | < 10 | CC(C)N1CCC[C@@H](c2ccc(-c3cc4c(N5CCN(C(=O)[C@H]6C[C@H](O)C6)CC5)ccnn4c3)cc2)C1 [Compound 385]
100 to 500 | < 10 | CC(C)N1CCC(c2ccc(-c3cc4c(N5CCN(C(=O)OCC6CC6)CC5)ccnn4c3)cc2)CC1 [Compound 386]
< 100 | < 10 | CC(C)N1CCC[C@H](c2ccc(-c3cc4c(N5CCN(C(=O)[C@H]6C[C@H](O)C6)CC5)ccnn4c3)cc2)C1 [Compound 387]
< 100 | < 10 | COC1(c2ccc(-c3cc4c(N5CCN(C(=O)C6CC6)CC5)ccnn4c3)cc2)CCCN(C(C)C)C1 (centres unmarked) [Compound 388]
